Results published in PubChem BioAssay (NCI).
“And” between values parts separate entries of the source, which are not always exact repeats. Equal values may be shown once.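 These data come from cells grown in 96-well plates and exposed to compound for 48 hours at five concentrations. The concentration for 50% growth inhibition is given as GI50. The concentration for full growth arrest is given as TGI.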

What was measured:
Assay in all cases: NCI tumour cell line growth inhibition, 48 h
[1] = tested on: A498 renal
[2] = tested on: CAKI-1 renal
[3] = tested on: HCC-2998 colon
[4] = tested on: HCT-15 colon
[5] = tested on: LOX IMVI melanoma
[6] = tested on: NCI-H226 lung
[7] = tested on: OVCAR-3 ovarian
[8] = tested on: OVCAR-4 ovarian
[9] = tested on: OVCAR-8 ovarian
[10] = tested on: SN12C renal
[11] = tested on: SNB-19 CNS
[12] = tested on: T-47D breast
[13] = tested on: UO-31 renal
[14] = tested on: SW-620 colon

| Compound | TGI [1] [µM] | TGI [2] [µM] | TGI [3] [µM] | TGI [4] [µM] | TGI [5] [µM] | TGI [6] [µM] | TGI [7] [µM] | TGI [8] [µM] | TGI [9] [µM] | TGI [10] [µM] | TGI [11] [µM] | TGI [12] [µM] | TGI [13] [µM] | TGI [14] [µM] | GI50 [8] |
| --- | --- | --- | --- | --- | --- | --- | --- | --- | --- | --- | --- | --- | --- | --- | --- |
| Cc1c(C(=O)c2ccccc2)[n+](=O)c2cc(Cl)c(Cl)cc2n1[O-] | 33.8 | 14.1 | 2.9 | 4.56 | 15.8 | 7.59 | 25 | 16.5 | 23.2 | 30.5 | 37.4 | 14 | 26.1 | – | – |
| O=S1SC(=S)C2C=CC=NC21 (centres undefined) | 66.1 | > 100 | 28.8 | 49.2 | 32.7 | 56.4 | 56.2 | > 100 | 79 | 28.8 | 87.9 | 58.9 | 28.4 | > 100 | – |
| C/C(O)=C(\C=N\C(=S)N=Nc1c(O)[nH]c2ccccc12)C(=O)Nc1ccccc1C | > 100 | > 100 | > 100 | > 100 | > 100 | > 100 | > 100 | > 100 | > 100 | > 100 | > 100 | > 100 | > 100 | > 100 | – |
| C[C@@H]1S[C@H](c2c(F)cccc2Cl)n2c1nc1ccccc12 | – | 76.5 | 26.5 | 19.3 | 25.3 | 37 | 28.2 | 37 | > 100 | 29 | 88.9 | 79.5 | 24.2 | 27.2 | – |
| C[N+](C)(C)CC(=O)N/N=C(\Cc1nc2ccc([N+](=O)[O-])cc2[nH]c1=O)C(=O)Nc1nc2ccc([N+](=O)[O-])cc2s1 | > 100 | 92 | > 100 | > 100 | > 100 | > 100 | > 100 | > 100 | > 100 | > 100 | – | > 100 | > 100 | > 100 | – |
| CCOC(=O)CN1C(=O)NC(C)(c2ccccc2)C1=O (centres undefined) | > 100 | > 100 | > 100 | > 100 | > 100 | – | > 100 | > 100 | > 100 | > 100 | > 100 | > 100 | > 100 | > 100 | – |
| CC(=O)OCC1OC(n2c(C)c(C(C)=O)c(-c3ccco3)c(C#N)c2=S)C(OC(C)=O)C(OC(C)=O)C1OC(C)=O (centres undefined) | > 100 | – | > 100 | > 100 | > 100 | > 100 | > 100 | > 100 | > 100 | > 100 | > 100 | > 100 | – | > 100 | > 100 µM and 37.8 µM |
| Cn1c(=O)c2ccccc2[n+]2c(-c3cccc([N+](=O)[O-])c3)csc12 | > 100 | > 100 | > 100 | – | > 100 | > 100 | > 100 | > 100 | > 100 | > 100 | > 100 | > 100 | > 100 | > 100 | – |
| Clc1cccc(-c2nc3cccc4c3n2Cc2ncccc2-4)c1 | > 100 | > 100 | > 100 | > 100 | – | > 100 | > 100 | > 100 | > 100 | > 100 | > 100 | > 100 | – | > 100 | – |
| COC(=O)c1cc(CC2Cc3cc4c(cc3C2=O)CCC4)cc2c1CCC2 (centres undefined) | > 100 | > 100 | > 100 | > 100 | > 100 | > 100 | > 100 | > 100 | > 100 | > 100 | > 100 | > 100 | > 100 | > 100 | – |
| CC1(C)CC[C@]2(C(=O)O)CC[C@]3(C)C(=CCC4=C5C[C@H](O)[C@H](O)[C@@](C)(CO)[C@@]5(C)CC[C@]43C)[C@@H]2C1 | > 100 | 87.2 | 64.1 | > 100 | > 100 | – | > 100 | 71.4 | > 100 | > 100 | > 100 | 89.5 | > 100 | > 100 | – |
| CCCCCCCCOC(=O)C12Oc3ccc(-c4ccc5c(c4O)C(O)=C4C(=O)CC(C)C(O)C4(C(=O)OCCCCCCCC)O5)c(O)c3C(O)=C1C(=O)CC(C)C2O (centres undefined) | > 100 | 64.3 | > 100 | > 100 | > 100 | > 100 | > 100 | > 100 | 35 | > 100 | 36.8 | > 100 | 92.2 | > 100 | – |
| Cc1cc(N2CCOCC2)nc2ccc(Cc3ccc4nc(N5CCOCC5)cc(C)c4c3)cc12 | > 100 | > 100 | 34.7 | > 100 | > 100 | > 100 | > 100 | > 100 | > 100 | > 100 | > 100 | 52.2 | > 100 | > 100 | – |
| C/C(=N\NC(=O)c1ccncc1)c1sc(-n2nc(-c3ccccc3)cc2-c2ccccc2)nc1C | > 100 | > 100 | > 31.6 | > 31.6 | > 100 | > 100 | > 31.6 | > 31.6 | > 100 | > 100 | > 31.6 | > 31.6 | > 31.6 | > 31.6 | – |
| COC(=O)/C=C/CCC#Cc1ccccc1C#CCC/C=C/C(=O)OC | > 100 | 10.1 | > 100 | > 100 | 64 | > 100 | 28.2 | > 100 | 26 | 55.7 | > 100 | 97.9 | > 100 | > 100 | – |
| COCn1cc(C2=C(C)C(=O)C(C)=C(C)C2=O)cn1 | > 100 | > 100 | > 100 | > 100 | – | > 100 | 40 | 31.7 | 36.8 | > 100 | > 100 | 56.1 | > 100 | > 100 | – |
